Data published in US4918066A, “Substituted 4-benzylpiperazinyl compounds” (Ciba-Geigy Corporation, priority 1989, dated 1990).
≈ marks a conversion by molar mass, not a printed value.

Experiments:
[1] = Pharmacokinetics in mice (Table 1); format: in vivo; details: mouse; for half-life: in vivo, read-out: t/2 (halflife of the elimination) (converted); for Cmax: plasma, read-out: Cmax (maximum concentration in the plasma)
M. scrofulaceum K 1166 = experiment: MIC against atypical Mycobacteria, scotochromogenic (Table II); format: cell-based; details: Mycobacterium scrofulaceum, K1166, read-out: MIC (minimum inhibitory concentration)
Description: (§1) MIC = minimum inhibitory concentration (1 mcg = 1.10^-5 g)

M. xenopei K 716 = experiment: as above; format: cell-based; details: Mycobacterium xenopi, K716, read-out: MIC (minimum inhibitory concentration)
Description: as §1

M. aquae K 1165 = experiment: as above; format: cell-based; details: read-out: MIC (minimum inhibitory concentration)
Description: as §1

[2] = tested on: Mycobacterium tuberculosis TB H3 Rv; experiment: Activity against Mycobacterium tuberculosis TB H3 Rv in vitro, MIC (Table 1); format: cell-based; details: TBH3RV, read-out: MIC (minimum inhibitory concentration)
Description: (a) minimum inhibitory concentration (1 mcg = 1.10^-5 g)

M. avium K 536 = experiment: MIC against atypical Mycobacteria, non-photochromogenic (Table II); format: cell-based; details: Mycobacterium avium, K536, read-out: MIC (minimum inhibitory concentration)
Description: as §1

M. intracellular K 181 = experiment: as above; format: cell-based; details: read-out: MIC (minimum inhibitory concentration)
Description: as §1

M. intracellular K 653 = experiment: as above; format: cell-based; details: read-out: MIC (minimum inhibitory concentration)
Description: as §1

M. intracellular K 546 = experiment: as above; format: cell-based; details: read-out: MIC (minimum inhibitory concentration)
Description: as §1

M. intracellular K 550 = experiment: as above; format: cell-based; details: read-out: MIC (minimum inhibitory concentration)
Description: as §1

M. intracellular K 551 = experiment: as above; format: cell-based; details: read-out: MIC (minimum inhibitory concentration)
Description: as §1

atypical Mycobacteria = experiment: Antimicrobial activity in vitro against atypical Mycobacteria; format: cell-based, Mycobacterium; details: against a number of atypical Mycobacteria; vs rifampicin
Description: This excellent activity is especially pronounced in group c, i.e. non-photochromogenic micro-organisms, which are among the most dangerous pathogens of AIDS infections.

[3] = Pharmacokinetics in rats (Table 1); format: in vivo; details: rat; for half-life: in vivo, read-out: t/2 (halflife of the elimination) (converted); for Cmax: plasma, read-out: Cmax (maximum concentration in the plasma)
Description: (c) Cmax = maximum concentration in the plasma (1 mcg = 1.10^-5

[4] = tested on: Mycobacterium tuberculosis TB H3 Rv; experiment: Activity against Mycobacterium tuberculosis TB H3 Rv, ED50 p.o. (Table 1); format: in vivo; details: TBH3RV, po
M. kansasii K 367 = experiment: MIC against atypical Mycobacteria, photochromogenic (Table II); format: cell-based; details: Mycobacterium kansasii, K367, read-out: MIC (minimum inhibitory concentration)
Description: as §1

[5] = Retention time in the organism / long-term activity; format: in vivo; details: for activity in respect of pharmacokinetics: vs known 3-piperazinyl-rifamycins; for retention time in the organism: vs rifampicin or compounds 1 to 4 of U.S. Pat. No. 4,005,077

| SMILES | half-life [1] [h] | Cmax [1] [ng/mL] | MIC (M. scrofulaceum K 1166) [µg/mL] | MIC (M. xenopei K 716) [µg/mL] | MIC (M. aquae K 1165) [µg/mL] | MIC [2] [µg/mL] | MIC (M. avium K 536) [µg/mL] | MIC (M. intracellular K 181) [µg/mL] | MIC (M. intracellular K 653) [µg/mL] | MIC (M. intracellular K 546) [µg/mL] | MIC (M. intracellular K 550) [µg/mL] | MIC (M. intracellular K 551) [µg/mL] | antimicrobial activity in vitro compared with rifampicin (atypical Mycobacteria) | half-life [3] [h] | Cmax [3] [ng/mL] | ED50 [4] [mg/kg] | MIC (M. kansasii K 367) [µg/mL] | activity in respect of pharmacokinetics [5] | retention time in the organism [5] |
| --- | --- | --- | --- | --- | --- | --- | --- | --- | --- | --- | --- | --- | --- | --- | --- | --- | --- | --- | --- |
| COC1C=COC2(C)Oc3c(C)c(O)c4c(O)c(c(N5CCN(Cc6c(C)cc(C)cc6C)CC5)c(O)c4c3C2=O)NC(=O)C(C)=CC=CC(C)C(O)C(C)C(O)C(C)C(OC(C)=O)C1C (stereo not drawn) [A, 3-[4-(2,4,6-trimethylbenzyl)-piperazin-1-yl]-rifamycin SV] | 47.4 | 2950 | 0.03 (≈ 0.0328 µM) | 1 (≈ 1.09 µM) | 0.03 (≈ 0.0328 µM) | 0.003 (≈ 0.00328 µM) | 0.5 (≈ 0.547 µM) | 0.03 (≈ 0.0328 µM) | 0.125 (≈ 0.137 µM) | 0.125 (≈ 0.137 µM) | 0.25 (≈ 0.273 µM) | 0.25 (≈ 0.273 µM) | several times greater than the antimicrobial activity exhibited by rifampicin | ~450 | 1510 | 4 | 0.015 (≈ 0.0164 µM) | superior activity in respect of pharmacokinetics | appreciably longer than that of rifampicin or of compounds 1 to 4 |
| COC1C=COC2(C)Oc3c(C)c(O)c4c(O)c(c(N5CCN(Cc6cccc7ccccc67)CC5)c(O)c4c3C2=O)NC(=O)C(C)=CC=CC(C)C(O)C(C)C(O)C(C)C(OC(C)=O)C1C (stereo not drawn) [B, 3-[4-(1-naphthylmethyl)-piperazin-1-yl]rifamycin SV] | 48.5 | 1880 | 0.06 (≈ 0.0651 µM) | 0.5 (≈ 0.542 µM) | 0.03 (≈ 0.0325 µM) | 0.0003 (≈ 0.000325 µM) | 1 (≈ 1.08 µM) | 0.125 (≈ 0.136 µM) | 0.25 (≈ 0.271 µM) | 1 (≈ 1.08 µM) | 1 (≈ 1.08 µM) | 1 (≈ 1.08 µM) | several times greater than the antimicrobial activity exhibited by rifampicin | 111 | 1120 | 3 | 0.015 (≈ 0.0163 µM) | superior activity in respect of pharmacokinetics | appreciably longer than that of rifampicin or of compounds 1 to 4 |
| COC1C=COC2(C)Oc3c(C)c(O)c4c(O)c(c(N5CCN(Cc6ccccc6C)CC5)c(O)c4c3C2=O)NC(=O)C(C)=CC=CC(C)C(O)C(C)C(O)C(C)C(OC(C)=O)C1C (stereo not drawn) [Compound 1, 3-[4-(o-methylbenzyl)-piperazin-1-yl]-rifamycin SV] | 22.9 | 2690 | – | – | – | 0.001 (≈ 0.00113 µM) | – | – | – | – | – | – | – | 86 | 1320 | 1.4 | – | – | – |
| COC1C=COC2(C)Oc3c(C)c(O)c4c(O)c(c(N5CCN(Cc6cccc(C)c6)CC5)c(O)c4c3C2=O)NC(=O)C(C)=CC=CC(C)C(O)C(C)C(O)C(C)C(OC(C)=O)C1C (stereo not drawn) [Compound 2] | 11.9 | 3390 | – | – | – | 0.0003 (≈ 0.000339 µM) | – | – | – | – | – | – | – | – | – | 1.4 | – | – | – |
| COC1C=COC2(C)Oc3c(C)c(O)c4c(O)c(c(N5CCN(Cc6ccc(C)cc6)CC5)c(O)c4c3C2=O)NC(=O)C(C)=CC=CC(C)C(O)C(C)C(O)C(C)C(OC(C)=O)C1C (stereo not drawn) [Compound 3, 3-[4-(p-methylbenzyl)-piperazin-1-yl]-rifamycin SV] | 11.5 | 2280 | – | – | – | 0.0001 (≈ 0.000113 µM) | – | – | – | – | – | – | – | – | – | 1.2 | – | – | – |
| COC1C=COC2(C)Oc3c(C)c(O)c4c(O)c(c(N5CCN(Cc6ccc(C(C)C)cc6)CC5)c(O)c4c3C2=O)NC(=O)C(C)=CC=CC(C)C(O)C(C)C(O)C(C)C(OC(C)=O)C1C (stereo not drawn) [Compound 4, 3-[4-(p-isopropylbenzyl)-piperazin-1-yl]-rifamycin SV] | 20.4 | 1810 | – | – | – | 0.003 (≈ 0.00328 µM) | – | – | – | – | – | – | – | – | – | 1.5 | – | – | – |
| COC1C=COC2(C)Oc3c(C)c(O)c4c(O)c(c(N5CCN(CC(C)C)CC5)c(O)c4c3C2=O)NC(=O)C(C)=CC=CC(C)C(O)C(C)C(O)C(C)C(OC(C)=O)C1C (stereo not drawn) [Compound 5, 3-(4-isobutylpiperazin-1-yl)-rifamycin SV] | 12 | 1200 | – | – | – | 0.0001 (≈ 0.000119 µM) | – | – | – | – | – | – | – | – | – | 1 | – | – | – |
| C=C(C)CN1CCN(c2c3c(O)c4c(O)c(C)c5c(c4c2O)C(=O)C(C)(OC=CC(OC)C(C)C(OC(C)=O)C(C)C(O)C(C)C(O)C(C)C=CC=C(C)C(=O)N3)O5)CC1 (stereo not drawn) [Compound 6] | 21 | 1400 | – | – | – | 0.0003 (≈ 0.000359 µM) | – | – | – | – | – | – | – | – | – | 1 | – | – | – |
| CO[C@H]1/C=C/O[C@@]2(C)Oc3c(C)c(O)c4c(O)c(c(/C=N/N5CCN(C)CC5)c(O)c4c3C2=O)NC(=O)/C(C)=C\C=C\[C@H](C)[C@H](O)[C@@H](C)[C@@H](O)[C@@H](C)[C@H](OC(C)=O)[C@@H]1C [Rifampicin] | – | 2480 | 1 (≈ 1.22 µM) | 1 (≈ 1.22 µM) | 0.25 (≈ 0.304 µM) | 0.003 (≈ 0.00365 µM) | 64 (≈ 77.8 µM) | 0.5 (≈ 0.608 µM) | 2 (≈ 2.43 µM) | 16 (≈ 19.4 µM) | 8 (≈ 9.72 µM) | 1 (≈ 1.22 µM) | – | – | 1390 | 5.9 | 0.25 (≈ 0.304 µM) | – | – |
